Source: the Kinase Knowledgebase extract (Sharma et al. 2016)

Target: EGFR (human), P00533 [T790M]
Sequence (P00533 whole entry T790M, looked up): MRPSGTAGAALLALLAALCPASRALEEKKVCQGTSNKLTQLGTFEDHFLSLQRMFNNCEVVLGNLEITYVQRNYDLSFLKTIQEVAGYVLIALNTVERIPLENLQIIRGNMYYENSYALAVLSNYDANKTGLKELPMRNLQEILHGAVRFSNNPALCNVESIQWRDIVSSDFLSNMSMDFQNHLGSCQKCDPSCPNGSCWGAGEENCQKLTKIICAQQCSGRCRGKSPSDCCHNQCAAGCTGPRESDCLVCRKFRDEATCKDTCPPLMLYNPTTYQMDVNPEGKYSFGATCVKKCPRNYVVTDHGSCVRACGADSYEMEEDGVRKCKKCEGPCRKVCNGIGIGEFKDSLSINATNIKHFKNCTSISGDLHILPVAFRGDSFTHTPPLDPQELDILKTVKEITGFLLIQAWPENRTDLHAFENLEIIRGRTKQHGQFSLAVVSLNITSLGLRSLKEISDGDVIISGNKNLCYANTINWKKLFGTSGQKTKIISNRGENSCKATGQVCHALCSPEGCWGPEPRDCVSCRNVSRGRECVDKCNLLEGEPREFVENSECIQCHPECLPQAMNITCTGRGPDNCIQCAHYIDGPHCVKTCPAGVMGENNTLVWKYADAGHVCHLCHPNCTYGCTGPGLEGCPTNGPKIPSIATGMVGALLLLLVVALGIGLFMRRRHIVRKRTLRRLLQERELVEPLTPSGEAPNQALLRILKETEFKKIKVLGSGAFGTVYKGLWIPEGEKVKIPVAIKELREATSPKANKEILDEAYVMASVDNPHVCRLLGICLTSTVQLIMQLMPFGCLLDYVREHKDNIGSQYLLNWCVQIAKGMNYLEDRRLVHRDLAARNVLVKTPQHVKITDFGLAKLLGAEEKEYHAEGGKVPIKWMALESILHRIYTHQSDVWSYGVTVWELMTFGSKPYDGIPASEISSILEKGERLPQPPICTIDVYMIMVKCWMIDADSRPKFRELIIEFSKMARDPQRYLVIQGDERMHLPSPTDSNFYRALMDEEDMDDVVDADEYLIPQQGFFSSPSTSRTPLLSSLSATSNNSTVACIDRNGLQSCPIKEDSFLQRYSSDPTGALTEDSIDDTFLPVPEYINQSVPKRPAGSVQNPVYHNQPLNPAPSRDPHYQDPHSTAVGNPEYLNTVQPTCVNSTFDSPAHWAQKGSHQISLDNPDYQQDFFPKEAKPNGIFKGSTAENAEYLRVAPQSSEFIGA

Compound	IC50
Cc1cccc(Nc2nc(Nc3cccc(NC(=O)/C=C/CN(C)C)c3)ncc2F)c1	≤ 10 nM
C=CC(=O)Nc1cccc(Nc2ncc(F)c(Nc3cccc(C)c3)n2)c1	≤ 10 nM

The remaining lines, values ahead:

IC50	Compound
≤ 10 nM	C=CC(=O)Nc1cccc(Nc2ncc(C)c(Nc3cccc(C)c3)n2)c1
≤ 10 nM	C=CC(=O)Nc1cccc(Nc2nc(Nc3ccc(OCCOC)c(F)c3)ncc2F)c1

Target: EGFR (Human), P00533 [T790M/L858R]
Sequence (P00533 whole entry T790M/L858R, looked up): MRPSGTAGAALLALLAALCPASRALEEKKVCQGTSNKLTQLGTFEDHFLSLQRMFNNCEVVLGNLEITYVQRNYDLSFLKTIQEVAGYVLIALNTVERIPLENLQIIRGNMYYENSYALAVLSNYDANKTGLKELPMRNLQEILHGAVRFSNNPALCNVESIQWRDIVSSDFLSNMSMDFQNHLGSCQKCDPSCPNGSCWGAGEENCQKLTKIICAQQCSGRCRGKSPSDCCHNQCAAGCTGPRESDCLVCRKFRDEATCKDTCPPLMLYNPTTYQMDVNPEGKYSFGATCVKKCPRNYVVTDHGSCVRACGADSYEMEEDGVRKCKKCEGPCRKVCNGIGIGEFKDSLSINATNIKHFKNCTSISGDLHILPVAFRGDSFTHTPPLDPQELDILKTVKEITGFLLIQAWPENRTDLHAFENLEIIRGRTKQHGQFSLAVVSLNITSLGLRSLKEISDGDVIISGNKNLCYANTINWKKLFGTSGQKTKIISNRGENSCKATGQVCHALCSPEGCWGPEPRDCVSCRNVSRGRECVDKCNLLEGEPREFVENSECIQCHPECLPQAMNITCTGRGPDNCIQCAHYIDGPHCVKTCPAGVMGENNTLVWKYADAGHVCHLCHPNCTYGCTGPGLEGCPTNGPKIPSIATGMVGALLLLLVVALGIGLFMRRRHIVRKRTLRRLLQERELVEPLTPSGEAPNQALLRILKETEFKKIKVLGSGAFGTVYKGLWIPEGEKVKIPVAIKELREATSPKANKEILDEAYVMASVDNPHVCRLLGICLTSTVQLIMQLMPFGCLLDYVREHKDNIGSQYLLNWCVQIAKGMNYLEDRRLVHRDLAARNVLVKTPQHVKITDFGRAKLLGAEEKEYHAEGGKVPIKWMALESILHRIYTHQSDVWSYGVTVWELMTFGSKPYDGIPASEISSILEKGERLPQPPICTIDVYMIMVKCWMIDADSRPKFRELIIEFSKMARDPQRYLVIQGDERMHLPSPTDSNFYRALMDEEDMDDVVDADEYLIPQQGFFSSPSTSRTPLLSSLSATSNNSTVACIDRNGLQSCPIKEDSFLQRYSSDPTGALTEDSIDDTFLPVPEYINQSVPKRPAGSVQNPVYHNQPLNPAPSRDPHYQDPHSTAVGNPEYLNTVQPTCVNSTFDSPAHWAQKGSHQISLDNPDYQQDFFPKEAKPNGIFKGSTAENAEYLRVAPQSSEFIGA

Compound	IC50
Cc1cnc(Nc2ccccc2)nc1Nc1cccc(NC(=O)/C=C/CN(C)C)c1	≤ 10 nM
C#CCOc1cccc(Nc2ncc(C)c(Nc3cccc(NC(=O)C=C)c3)n2)c1	≤ 10 nM
C=CC(=O)Nc1cccc(Nc2nccc(Nc3cccc(C)c3)n2)c1	≤ 10 nM
C=CC(=O)Nc1cccc(Nc2nc(Nc3ccccc3)ncc2C)c1	≤ 10 nM
Cc1cccc(Nc2nc(Nc3cccc(NC(=O)/C=C/CN(C)C)c3)ncc2F)c1	≤ 10 nM
C=CC(=O)Nc1cccc(Nc2ncc(F)c(Nc3cccc(C)c3)n2)c1	≤ 10 nM
C=CC(=O)Nc1ccc(C)c(Nc2nccc(-c3cccnc3)n2)c1	≤ 10 nM

Other lines, results leading:

IC50	Compound
≤ 10 nM	C=CC(=O)Nc1ccc(C)c(Nc2ncc(C)c(Nc3cccc(C)c3)n2)c1
≤ 10 nM	Cc1cnc(Nc2cccc(S(N)(=O)=O)c2)nc1Nc1ccc2c(c1)CCN(C(=O)CCl)C2
≤ 10 nM	C=CC(=O)Nc1cccc(Nc2ncc(C)c(Nc3cccc(C)c3)n2)c1
≤ 10 nM	C=CC(=O)Nc1cccc(Nc2nc(Nc3ccc(OCCOC)c(F)c3)ncc2F)c1
≤ 10 nM	C=CC(=O)Nc1cccc(Nc2ncc(C)c(Nc3ccccc3)n2)c1

Target: EGFR (human), P00533 [WT]
Sequence (P00533 whole entry, looked up): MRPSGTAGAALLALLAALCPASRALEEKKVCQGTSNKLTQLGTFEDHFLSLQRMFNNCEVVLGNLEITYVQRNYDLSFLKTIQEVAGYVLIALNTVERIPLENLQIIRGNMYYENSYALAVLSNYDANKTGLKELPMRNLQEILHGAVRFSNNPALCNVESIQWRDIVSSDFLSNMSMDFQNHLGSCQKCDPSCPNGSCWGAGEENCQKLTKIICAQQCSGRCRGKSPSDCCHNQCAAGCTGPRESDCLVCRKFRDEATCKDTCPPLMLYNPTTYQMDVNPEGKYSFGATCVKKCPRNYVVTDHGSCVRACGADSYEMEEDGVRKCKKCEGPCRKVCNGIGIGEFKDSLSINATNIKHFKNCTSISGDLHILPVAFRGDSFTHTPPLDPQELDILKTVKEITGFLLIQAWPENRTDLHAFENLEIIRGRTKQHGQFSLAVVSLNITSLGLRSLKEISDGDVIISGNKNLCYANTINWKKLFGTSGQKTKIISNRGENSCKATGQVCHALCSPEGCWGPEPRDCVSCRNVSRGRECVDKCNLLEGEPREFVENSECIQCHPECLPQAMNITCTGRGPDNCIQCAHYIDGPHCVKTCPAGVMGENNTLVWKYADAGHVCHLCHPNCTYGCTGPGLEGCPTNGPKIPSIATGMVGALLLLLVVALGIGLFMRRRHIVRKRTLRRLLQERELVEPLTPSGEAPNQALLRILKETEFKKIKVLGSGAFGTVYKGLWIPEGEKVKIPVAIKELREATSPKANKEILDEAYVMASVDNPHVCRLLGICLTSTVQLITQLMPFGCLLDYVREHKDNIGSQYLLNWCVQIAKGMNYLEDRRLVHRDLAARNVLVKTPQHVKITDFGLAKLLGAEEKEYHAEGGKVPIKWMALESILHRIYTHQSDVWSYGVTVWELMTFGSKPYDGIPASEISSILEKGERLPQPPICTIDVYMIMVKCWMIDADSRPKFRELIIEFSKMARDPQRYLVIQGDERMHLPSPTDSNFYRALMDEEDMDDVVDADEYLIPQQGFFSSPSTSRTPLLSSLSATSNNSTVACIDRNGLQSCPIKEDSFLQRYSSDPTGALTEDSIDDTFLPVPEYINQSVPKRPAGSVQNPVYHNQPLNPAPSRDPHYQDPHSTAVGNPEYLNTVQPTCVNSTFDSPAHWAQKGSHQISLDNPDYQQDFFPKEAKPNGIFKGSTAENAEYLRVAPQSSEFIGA

Compound	IC50
C=CC(=O)Nc1cccc(Nc2nc(Nc3cccc(OCC4CCCN(C)C4)c3)ncc2F)c1 (centres undefined)	≤ 10 nM
C=CC(=O)Nc1cccc(Nc2nc(Nc3ccc(OCCOC)cc3)ncc2C#N)c1	≤ 10 nM
C=CC(=O)Nc1cccc(Nc2nc(Nc3ccc4[nH]ncc4c3)ncc2F)c1	≤ 10 nM
C=CC(=O)Nc1cccc(Nc2nc(Nc3ccc(OCC(O)CO)cc3)ncc2F)c1 (centres undefined)	≤ 10 nM
C=CC(=O)Nc1cccc(Oc2nc(Nc3ccc(OCCOC)cc3)ncc2C2CC2)c1	≤ 10 nM
C=CC(=O)Nc1cccc(Nc2nc(Nc3ccc4c(cnn4C)c3)ncc2F)c1	≤ 10 nM
C=CC(=O)Nc1cccc(Oc2nc(Nc3cccc(OC)c3)ncc2C(=O)NC2CC2)c1	≤ 10 nM
C=CC(=O)Nc1cccc(Nc2nc(Nc3cccc(OCCCN4CCCC4=O)c3)ncc2F)c1	≤ 10 nM
C=CC(=O)Nc1cccc(Oc2nc(Nc3cccc(OCCCN4CCCC4=O)c3)ncc2F)c1	≤ 10 nM
C=CC(=O)Nc1cccc(Nc2nc(Nc3ccc(OCC4CCN(C)CC4)nc3)ncc2F)c1	≤ 10 nM
C=CC(=O)Nc1cccc(Nc2nc(Nc3cccc(OCC(O)CO)c3)ncc2F)c1 (centres undefined)	≤ 10 nM
C=CC(=O)Nc1cccc(Nc2nccc(Nc3cccc(C)c3)n2)c1	≤ 10 nM
C=CC(=O)Nc1cccc(Nc2nc(Nc3ccc(OCC4CCN(C)CC4)cc3)ncc2F)c1	≤ 10 nM
C=CC(=O)Nc1cccc(Nc2nc(Nc3ccccc3)ncc2C)c1	≤ 10 nM
C=CC(=O)Nc1cccc(Nc2nc(Nc3ccc(OCCOC)c(F)c3)ncc2C#N)c1	≤ 10 nM
C=CC(=O)Nc1cccc(Oc2nc(Nc3cccc(OC)c3)ncc2C(=O)Nc2ccccc2)c1	≤ 10 nM
Cc1cccc(Nc2nc(Nc3cccc(NC(=O)/C=C/CN(C)C)c3)ncc2F)c1	≤ 10 nM
C=CC(=O)Nc1cccc(Nc2ncc(F)c(Nc3cccc(C)c3)n2)c1	≤ 10 nM
C=CC(=O)Nc1cccc(Nc2nc(Nc3ccccc3)ncc2C(F)(F)F)c1	≤ 10 nM
C=CC(=O)Nc1cccc(Oc2nc(Nc3cccc(OCC4CCN(C)CC4)c3)ncc2F)c1	≤ 10 nM
Cc1cccc(Nc2nc(Nc3cccc(NC(=O)/C=C/CN4CC[C@@H](O)C4)c3)ncc2F)c1	≤ 10 nM
C=CC(=O)Nc1cccc(Nc2nc(Nc3ccccc3)ncc2C#N)c1	≤ 10 nM
C=CC(=O)N1CCOc2ccc(Nc3nc(Nc4ccc(N5CCOCC5)cc4)ncc3C(C)=O)cc21	≤ 10 nM
C=C(C)C(=O)Cc1cccc(Nc2nc(Nc3ccc(OCCOC)c(F)c3)ncc2F)c1	≤ 10 nM
C=CC(=O)Nc1cccc(Oc2nc(Nc3cccc(OCCCS(C)(=O)=O)c3)ncc2F)c1	≤ 10 nM
C=CC(=O)Nc1cccc(Nc2nc(Nc3cccc(OCCN(C)C)c3)ncc2F)c1	≤ 10 nM
C=CC(=O)N1CCOc2ccc(Nc3nc(Nc4ccc(OCCOC)cc4)ncc3C(C)=O)cc21	≤ 10 nM
C=CC(=O)Nc1cccc(Nc2nc(Nc3cccc(OCC4CCN(C)CC4)c3)ncc2F)c1	≤ 10 nM
C=CC(=O)Nc1cccc(Nc2nc(Nc3cccc(S(N)(=O)=O)c3)ncc2C)c1	≤ 10 nM
C=CC(=O)Nc1cccc(Nc2nc(Nc3cccc(CO)c3)ncc2F)c1	≤ 10 nM

Second part, the compound after the results:

IC50	Compound
≤ 10 nM	C=CC(=O)Nc1ccc(Nc2nc(Nc3ccc(OC)nc3)ncc2C(F)(F)F)cc1
≤ 10 nM	C=CC(=O)Nc1ccc(C)c(Nc2ncc(C)c(Nc3cccc(C)c3)n2)c1
≤ 10 nM	C=CC(=O)Nc1cccc(Oc2nc(Nc3ccc(OC)nc3)ncc2C(C)=O)c1
≤ 10 nM	Cc1cccc(Nc2nc(Nc3cccc(NC(=O)/C=C/CN4CC[C@H](O)C4)c3)ncc2F)c1
≤ 10 nM	C=CC(=O)Nc1cccc(Nc2nc(Nc3ccc(N4CCS(=O)(=O)CC4)nc3)ncc2F)c1
≤ 10 nM	COCCN(C)C/C=C/C(=O)Nc1cccc(Nc2ncc(F)c(Nc3cccc(C)c3)n2)c1
≤ 10 nM	C=CC(=O)Nc1cccc(Oc2nc(Nc3cccc(N4CCN(CCO)CC4)c3)ncc2F)c1
≤ 10 nM	C=CC(=O)Nc1cccc(Nc2nc(Nc3cccc(S(N)(=O)=O)c3)ncc2F)c1
≤ 10 nM	C=CC(=O)Nc1cccc(Oc2nc(Nc3ccc(OC)nc3)ncc2C(=O)NC2CC2)c1
≤ 10 nM	C=CC(=O)Nc1cccc(Nc2nc(Nc3ccc(OC)nc3)ncc2C2CC2)c1
≤ 10 nM	C=CC(=O)Nc1cccc(Oc2nc(Nc3ccc(OC)nc3)ncc2C)c1
≤ 10 nM	C=CC(=O)Nc1cccc(Oc2nc(Nc3ccccc3)ncc2C)c1
≤ 10 nM	Cc1cnc(Nc2cccc(S(N)(=O)=O)c2)nc1Nc1ccc2c(c1)CCN(C(=O)CCl)C2
≤ 10 nM	C=CC(=O)Nc1cccc(Nc2nc(Nc3ccc(OCCCNC(=O)OC(C)(C)C)cc3)ncc2F)c1
≤ 10 nM	C=CC(=O)Nc1cccc(Nc2nc(Nc3ccc(OC)nc3)ncc2C#N)c1
≤ 10 nM	C=CC(=O)N1CCC[C@@H](Nc2nc(Nc3cccc(Cl)c3)ncc2F)C1
≤ 10 nM	C=CC(=O)Nc1cccc(Nc2nc(Nc3ccc4c(c3)NCCO4)ncc2F)c1
≤ 10 nM	C=CC(=O)Nc1cccc(Nc2nc(Nc3ccc(OCCOC)cc3)ncc2F)c1
≤ 10 nM	C=CC(=O)Nc1cccc(Oc2nc(Nc3cccc(OCC4CCCN(C)C4)c3)ncc2F)c1 (centres undefined)
≤ 10 nM	C=CC(=O)Nc1cccc(Oc2nc(Nc3cccc(OC)c3)ncc2C(N)=O)c1
≤ 10 nM	C=CC(=O)Nc1cccc(Oc2nc(Nc3ccc(OC)nc3)ncc2C(=O)Nc2ccccc2)c1
≤ 10 nM	Cc1cccc(Nc2nc(Nc3cccc(NC(=O)/C=C/CN(C)C)c3)ncc2C)c1
≤ 10 nM	C=CC(=O)Nc1cccc(Nc2ncc(C)c(Nc3ccccc3)n2)c1
≤ 10 nM	C=CC(=O)Nc1cccc(Nc2nc(Nc3ccc4c(c3)CC(=O)N4)ncc2F)c1
≤ 10 nM	C=CC(=O)Nc1cccc(Nc2nc(Nc3ccc(OCCOC)c(F)c3)ncc2C(F)(F)F)c1
≤ 10 nM	C=CC(=O)Nc1cccc(Nc2nc(Nc3ccc(OCC(O)CO)c(F)c3)ncc2F)c1 (centres undefined)
≤ 10 nM	C=CC(=O)Nc1cccc(Oc2nc(Nc3cccc(OCCN4CCCC4=O)c3)ncc2F)c1

Target: EGFR (human) (UniProt P00533)
Sequence (P00533 whole entry, looked up): as above

IC50	Compound
2.23 nM	C=CC(=O)Nc1ccc(C)c(Nc2nccc(-c3cccnc3)n2)c1
